The target in one test is hNox4 (Homo sapiens (Human), UniProt Q9NPH5). As to the kind of experiment: hNox4 membrane assay (Amplex Red, cell-free). In kind it is biochemical. As to the method:
(§1) Reactive oxygen produced in whole cells or in membrane preparation of Nox1, Nox3, Nox4, Nox5 and xanthine oxidase and glucose oxidase were determined using Amplex Red as detection probe of formed H2O2. Amplex Red (10-acetyl-3,7-dihydroxyphenoxazine) in combination with HRP and co-factors reacts with H2O2 in a 1:1 stoichiometry to form a highly fluorescent resorufin excitated at 544 nm producing emission at 590 nm.
Membranes from transfected cells overexpressing Nox1 (CHO), Nox2 (PLB), Nox3 (HEK), Nox4 (HEK) or Nox5 (HEK) were prepared as described in Pailcz et al., 2001, J. Biol. Chem, 76, 3090-3097. Cells were suspended and homogenized in sonication buffer containing PBS, sucrose (11%), NaCl (120 mM) and EGTA (1 mM) supplemented with protease inhibitors and further processed and then broken by sonication cooled with an ice bath. Then the sample was centrifuged at 200×g for 10 min. Supernatant was carefully added on top of a 17/40% discontinuous sucrose gradient and centrifuged at 150 000×g for 60 min. Membranes containing Nox isoforms were collected at the 17/40% sucrose interface as described by Jaquet V, et al., Br J Pharmacol 2011; 164:507-520. For the Nox isoforms Nox1, Nox2, Nox3 a subunit-specific cell-free, membrane-based system has been developed and recombinant proteins of the subunits were added to receive activation of the Nox-iso forms in the cell-free assay. The Amplex Red assay was performed in black 96-well flat bottom plates. Assay reagents including HRP ([…]), FAD (6 μM), phosphatidic acid (15 μM) and Amplex Red (50 μM) were added followed by NADPH (30 μM) to initiate production of hydrogen peroxide. The production of hydrogen peroxide was followed by use of a fluorescence plate reader, read at 37° C. every minute between 30-60 minutes.

The subject of test [1] is Nox1, Nox2, Nox3 and Nox5. As to the kind of experiment: Activity on Nox1, Nox2, Nox3 and Nox5. In kind it is cell-based. The protocol:
as §1
Adherent cells (CHO, HEK) were collected by trypsinization, centrifuged, washed with HBSS, counted, and resuspended in HBSS. Cells were seeded in 96-well black flat bottom plates at a density of 50,000-100,000 cells/well. All compounds were dissolved in DMSO and concentrations ranging from 0.003 to 200 μM were tested in Nox cellular assays with a final concentration of DMSO of 1%. Cells were incubated at 37° C. with the compounds for 30 minutes before measurement. Cells expressing Nox1 and Nox2 were activated with the PKC activator PMA (0.1 μM). Nox5 was activated with the Ca2+ ionophore ionomycin (1 μM) and further enforced with PMA. The CJ HEK 293 cells overexpressed Nox4 constitutively. In the HTS screen HEK 293 TRex was used and tetracycline ([…]) was added 18 h before measurement to induce Nox4 expression. Production of hydrogen peroxide by Nox in intact cells was measured using Amplex Red fluorescence as described by Jaquet V, et al., Br J Pharmacol 2011; 164:507-520. […] Fluorescence was read in a fluorescence plate reader at 37° C. every minute between 30-60 minutes.
Compounds of the invention were tested for selectivity against Nox2 in isolated neutrophils from whole blood (human), as previously described (Anvari E, et al., vide supra). Levels of ROS from PMA stimulated primary human neutrophils were measured using isoluminol-dependent chemiluminescence. […] The dye is excited by ROS and the light emitted when the excited molecules return to the ground state, relative to the amount of released ROS, is measured. […] Luminescence was detected using FluoStar Optima (BMG, Labtech). […]

The test system of test [2] is human brain micro-vascular endothelial cells. As to the kind of experiment: In vitro stroke model: endothelial cells subjected to hypoxia and glucose deprivation. In kind it is cell-based. As to conditions: hypoxia and glucose deprivation 5 h (Example 44: 6 h), viability after 24 hours of culture. As to the method: FIG. 1 is a bar chart showing cell viability as a ratio of basal cell viability of human brain microvascular endothelial cells subjected to hypoxia and starvation (OGD: oxygen and glucose deprivation) for 5 h and then cultured for 24 h in the absence or presence of Example 11 at a concentration of 2, 10 or 20 μM. Basal=no hypoxia or starvation, cells cultured in the presence of culture medium only. OGD=5 h of hypoxia or starvation, cells cultured in the presence of culture medium only.
FIG. 2 is a bar chart showing cell viability as a ratio of basal cell viability of human brain microvascular endothelial cells subjected to hypoxia and starvation (OGD) for 5 h and then cultured for 24 h in the absence or presence of Example 17 at a concentration of 0.3, 3 or 10 μM. Basal=no hypoxia or starvation, cells cultured in the presence of culture medium only. OGD=5 h of hypoxia or starvation, cells cultured in the presence of culture medium only.
FIG. 3 is a bar chart showing cell viability as a ratio of basal cell viability of human brain microvascular endothelial cells subjected to hypoxia and starvation (OGD: oxygen and glucose deprivation) for 6 h and then cultured for 24 h in the absence or presence of Example 44 at a concentration of from 0.6 to 9.6 μM. Basal=no hypoxia or starvation, cells cultured in the presence of culture medium only. OGD=6 h of hypoxia or starvation, cells cultured in the presence of culture medium only (*p<0.05, ***p<0.001).
Hippocampal brain slices and human brain micro-vascular endothelial cells were subjected to hypoxia and glucose deprivation (starvation) for 5 hours and were tested for viability after 24 hours of culture in the presence of Example 11 or Example 17 at different concentrations. Additionally, human brain micro-vascular endothelial cells were subjected to hypoxia and glucose deprivation (starvation) for 6 hours and were tested for viability after 24 hours of culture in the presence of Example 44 at various concentrations.

Chain of hNox4 (Q9NPH5 whole entry): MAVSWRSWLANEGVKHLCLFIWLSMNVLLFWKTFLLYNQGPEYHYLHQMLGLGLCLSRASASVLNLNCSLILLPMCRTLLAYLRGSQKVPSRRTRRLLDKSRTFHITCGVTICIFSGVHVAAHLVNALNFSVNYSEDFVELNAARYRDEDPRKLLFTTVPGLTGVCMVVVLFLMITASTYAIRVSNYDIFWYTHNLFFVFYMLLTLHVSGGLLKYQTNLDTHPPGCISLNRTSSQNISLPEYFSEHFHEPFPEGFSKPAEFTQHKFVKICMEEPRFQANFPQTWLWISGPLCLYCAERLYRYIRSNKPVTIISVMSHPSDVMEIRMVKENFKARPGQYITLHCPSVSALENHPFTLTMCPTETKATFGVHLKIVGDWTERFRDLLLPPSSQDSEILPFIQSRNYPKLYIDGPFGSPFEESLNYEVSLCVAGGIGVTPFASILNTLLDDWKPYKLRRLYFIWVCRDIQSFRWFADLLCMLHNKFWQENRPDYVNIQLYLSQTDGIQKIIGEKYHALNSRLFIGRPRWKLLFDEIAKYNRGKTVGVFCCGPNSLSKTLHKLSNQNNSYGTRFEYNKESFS
Chain of hNox4 (P13498 2-195 partner): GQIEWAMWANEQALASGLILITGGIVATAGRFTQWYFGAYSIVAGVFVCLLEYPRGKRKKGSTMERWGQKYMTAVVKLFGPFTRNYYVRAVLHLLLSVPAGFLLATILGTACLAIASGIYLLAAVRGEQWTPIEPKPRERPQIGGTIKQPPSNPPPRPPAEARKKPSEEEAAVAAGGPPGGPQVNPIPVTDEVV

On to `O=S(=O)(NCCc1ccccc1Cl)c1c(Cl)cc(C2CC2)cc1Cl` [Example 26, 2,6-dichloro-N-[2-(2-chlorophenyl)ethyl]-4-cyclopropylbenzene-1-sulfonamide], for which the Ki at hNox4 was found to be 2200 nM. In test [1], the “Activity on Nox1, Nox2, Nox3 and Nox5” value was “inactive”.
For `Cc1ccccc1CCNS(=O)(=O)c1c(Cl)cc(Br)cc1Cl` [Example 17, 4-bromo-2,6-dichloro-N-[2-(2-methylphenyl)ethyl]benzene-1-sulfonamide], the inhibition constant (Ki) at hNox4 stood at 560 nM. The “Activity on Nox1, Nox2, Nox3 and Nox5” value in test [1] was “inactive”. In test [2], the “neuroprotective effect (cell viability)” value was “neuroprotective effect”.
For `Cc1ccccc1CCNS(=O)(=O)c1c(C)cccc1Cl` [Example 11, 2-chloro-6-methyl-N-[2-(2-methylphenyl)ethyl]benzene-1-sulfonamide] the same measures were 4400 nM, “inactive” and “neuroprotective effect”.
For `Cc1cc(Cl)c(S(=O)(=O)NCCc2ccccc2O)c(C)c1O` [Example 44, 6-chloro-3-hydroxy-N-[2-(2-hydroxyphenyl)ethyl]-2,4-dimethyl-benzenesulfonamide], in test [2], the “neuroprotective effect (cell viability)” value is “neuroprotective effect”.
